Test results from ChEMBL document CHEMBL4507264, “Data for DCP probe BAY-7598” (2021).

Experiments:
[1] = target: Dual specificity mitogen-activated protein kinase kinase 1 (Homo sapiens) (UniProt Q02750); settings: Compound concentration 1000.0 nM
[2] = target: Cyclin-dependent kinase-like 5 (Homo sapiens) (UniProt O76039); settings: Compound concentration 1000.0 nM
[3] = target: Proto-oncogene tyrosine-protein kinase ROS (Homo sapiens) (UniProt P08922); settings: Compound concentration 1000.0 nM
[4] = target: Cyclin-dependent kinase 9 (Homo sapiens) (UniProt P50750); settings: Compound concentration 1000.0 nM
[5] = target: Receptor-interacting serine/threonine-protein kinase 1 (Homo sapiens) (UniProt Q13546); settings: Compound concentration 1000.0 nM
[6] = target: Ephrin type-B receptor 3 (Homo sapiens) (UniProt P54753); settings: Compound concentration 1000.0 nM
[7] = test system: Tyrosine-protein kinase ABL1 (Homo sapiens), P00519 [F317L]; settings: Compound concentration 1000.0 nM
[8] = target: Mitogen-activated protein kinase 9 (Homo sapiens) (UniProt P45984); settings: Compound concentration 1000.0 nM
[9] = target: Interleukin-1 receptor-associated kinase 3 (Homo sapiens) (UniProt Q9Y616); settings: Compound concentration 1000.0 nM
[10] = target: Tyrosine-protein kinase BTK (Homo sapiens) (UniProt Q06187); settings: Compound concentration 1000.0 nM
[11] = test system: Mast/stem cell growth factor receptor Kit (Homo sapiens), P10721 [D816H]; settings: Compound concentration 1000.0 nM
[12] = target: Muscarinic acetylcholine receptor M5 (Homo sapiens) (UniProt P08912); settings: Compound concentration 10.0 uM
[13] = target: Serine/threonine-protein kinase 26 (Homo sapiens) (UniProt Q9P289); settings: Compound concentration 1000.0 nM
[14] = target: MAP kinase-activated protein kinase 5 (Homo sapiens) (UniProt Q8IW41); settings: Compound concentration 1000.0 nM
[15] = target: Serine/threonine-protein kinase ULK1 (Homo sapiens) (UniProt O75385); settings: Compound concentration 1000.0 nM
[16] = test system: Phosphatidylinositol 4,5-bisphosphate 3-kinase catalytic subunit alpha isoform (Homo sapiens), P42336 [H1047L]; settings: Compound concentration 1000.0 nM
[17] = target: Serine/threonine-protein kinase PAK 5 (Homo sapiens) (UniProt Q9P286); settings: Compound concentration 1000.0 nM
[18] = target: Serine/threonine-protein kinase PAK 1 (Homo sapiens) (UniProt Q13153); settings: Compound concentration 1000.0 nM
[19] = target: Phosphatidylinositol 4,5-bisphosphate 3-kinase catalytic subunit delta isoform (Homo sapiens) (UniProt O00329); settings: Compound concentration 1000.0 nM
[20] = target: Serine/threonine-protein kinase PRP4 homolog (Homo sapiens) (UniProt Q13523); settings: Compound concentration 1000.0 nM
[21] = target: Receptor-interacting serine/threonine-protein kinase 2 (Homo sapiens) (UniProt O43353); settings: Compound concentration 1000.0 nM
[22] = test system: Tyrosine-protein kinase ABL1 (Homo sapiens), P00519 [Y253F]; settings: Compound concentration 1000.0 nM
[23] = target: Serine/threonine-protein kinase BRSK1 (Homo sapiens) (UniProt Q8TDC3); settings: Compound concentration 1000.0 nM
[24] = target: Angiopoietin-1 receptor (Homo sapiens) (UniProt Q02763); settings: Compound concentration 1000.0 nM
[25] = target: Vascular endothelial growth factor receptor 3 (Homo sapiens) (UniProt P35916); settings: Compound concentration 1000.0 nM
[26] = target: Cyclin-dependent kinase 2 (Homo sapiens) (UniProt P24941); settings: Compound concentration 1000.0 nM
[27] = test system: Serine/threonine-protein kinase B-raf (Homo sapiens), P15056 [V600E]; settings: Compound concentration 1000.0 nM
[28] = target: Dual specificity mitogen-activated protein kinase kinase 7 (Homo sapiens) (UniProt O14733); settings: Compound concentration 1000.0 nM
[29] = target: Serine/threonine-protein kinase PAK 4 (Homo sapiens) (UniProt O96013); settings: Compound concentration 1000.0 nM
[30] = test system: Epidermal growth factor receptor (Homo sapiens), P00533 [UNDEFINED MUTATION]; settings: Compound concentration 1000.0 nM
[31] = target: Death-associated protein kinase 1 (Homo sapiens) (UniProt P53355); settings: Compound concentration 1000.0 nM
[32] = target: Citron Rho-interacting kinase (Homo sapiens) (UniProt O14578); settings: Compound concentration 1000.0 nM
[33] = test system: Tyrosine-protein kinase ABL1 (Homo sapiens), P00519 [T315I]; settings: Compound concentration 1000.0 nM
[34] = target: Myotonin-protein kinase (Homo sapiens) (UniProt Q09013); settings: Compound concentration 1000.0 nM
[35] = target: Phosphatidylinositol 5-phosphate 4-kinase type-2 gamma (Homo sapiens) (UniProt Q8TBX8); settings: Compound concentration 1000.0 nM
[36] = target: RAC-beta serine/threonine-protein kinase (Homo sapiens) (UniProt P31751); settings: Compound concentration 1000.0 nM
[37] = target: Ribosomal protein S6 kinase alpha-2 (Homo sapiens) (UniProt Q15349); settings: Compound concentration 1000.0 nM
[38] = target: NUAK family SNF1-like kinase 2 (Homo sapiens) (UniProt Q9H093); settings: Compound concentration 1000.0 nM
[39] = target: Protein kinase C delta type (Homo sapiens) (UniProt Q05655); settings: Compound concentration 1000.0 nM
[40] = target: Cyclin-dependent kinase 11A (Homo sapiens) (UniProt Q9UQ88); settings: Compound concentration 1000.0 nM
[41] = target: Bone morphogenetic protein receptor type-2 (Homo sapiens) (UniProt Q13873); settings: Compound concentration 1000.0 nM
[42] = target: Ribosomal protein S6 kinase alpha-5 (Homo sapiens) (UniProt O75582); settings: Compound concentration 1000.0 nM
[43] = target: Homeodomain-interacting protein kinase 4 (Homo sapiens) (UniProt Q8NE63); settings: Compound concentration 1000.0 nM
[44] = target: Dual specificity mitogen-activated protein kinase kinase 5 (Homo sapiens) (UniProt Q13163); settings: Compound concentration 1000.0 nM
[45] = target: Mitogen-activated protein kinase kinase kinase kinase 2 (Homo sapiens) (UniProt Q12851); settings: Compound concentration 1000.0 nM

Sequence of Bone morphogenetic protein receptor type-2 (Homo sapiens) (Q13873 whole entry): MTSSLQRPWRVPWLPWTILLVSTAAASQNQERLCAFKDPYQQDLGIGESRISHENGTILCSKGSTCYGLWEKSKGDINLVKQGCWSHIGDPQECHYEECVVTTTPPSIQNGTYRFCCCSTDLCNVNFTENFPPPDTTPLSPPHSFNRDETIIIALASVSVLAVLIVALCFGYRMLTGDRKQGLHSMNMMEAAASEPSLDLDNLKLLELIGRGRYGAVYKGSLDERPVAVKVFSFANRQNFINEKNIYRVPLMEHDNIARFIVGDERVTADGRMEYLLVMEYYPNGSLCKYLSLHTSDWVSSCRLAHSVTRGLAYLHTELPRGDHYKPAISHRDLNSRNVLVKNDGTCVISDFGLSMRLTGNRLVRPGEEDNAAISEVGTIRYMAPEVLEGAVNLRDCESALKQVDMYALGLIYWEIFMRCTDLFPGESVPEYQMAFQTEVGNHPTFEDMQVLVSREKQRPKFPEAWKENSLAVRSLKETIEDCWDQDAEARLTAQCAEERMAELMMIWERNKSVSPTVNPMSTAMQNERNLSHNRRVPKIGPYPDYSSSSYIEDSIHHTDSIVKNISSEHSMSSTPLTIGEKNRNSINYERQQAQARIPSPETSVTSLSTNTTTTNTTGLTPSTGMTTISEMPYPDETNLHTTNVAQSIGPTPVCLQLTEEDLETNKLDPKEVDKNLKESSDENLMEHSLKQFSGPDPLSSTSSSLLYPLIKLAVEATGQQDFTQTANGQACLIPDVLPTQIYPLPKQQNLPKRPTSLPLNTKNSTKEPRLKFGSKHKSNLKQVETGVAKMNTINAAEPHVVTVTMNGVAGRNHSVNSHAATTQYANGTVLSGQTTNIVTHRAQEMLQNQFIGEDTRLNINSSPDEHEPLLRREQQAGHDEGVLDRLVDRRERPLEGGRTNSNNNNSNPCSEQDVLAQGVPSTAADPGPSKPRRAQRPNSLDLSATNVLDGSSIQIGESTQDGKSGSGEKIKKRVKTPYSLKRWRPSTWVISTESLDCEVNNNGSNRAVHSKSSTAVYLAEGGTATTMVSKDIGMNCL
Sequence of Death-associated protein kinase 1 (Homo sapiens) (P53355 whole entry, looked up): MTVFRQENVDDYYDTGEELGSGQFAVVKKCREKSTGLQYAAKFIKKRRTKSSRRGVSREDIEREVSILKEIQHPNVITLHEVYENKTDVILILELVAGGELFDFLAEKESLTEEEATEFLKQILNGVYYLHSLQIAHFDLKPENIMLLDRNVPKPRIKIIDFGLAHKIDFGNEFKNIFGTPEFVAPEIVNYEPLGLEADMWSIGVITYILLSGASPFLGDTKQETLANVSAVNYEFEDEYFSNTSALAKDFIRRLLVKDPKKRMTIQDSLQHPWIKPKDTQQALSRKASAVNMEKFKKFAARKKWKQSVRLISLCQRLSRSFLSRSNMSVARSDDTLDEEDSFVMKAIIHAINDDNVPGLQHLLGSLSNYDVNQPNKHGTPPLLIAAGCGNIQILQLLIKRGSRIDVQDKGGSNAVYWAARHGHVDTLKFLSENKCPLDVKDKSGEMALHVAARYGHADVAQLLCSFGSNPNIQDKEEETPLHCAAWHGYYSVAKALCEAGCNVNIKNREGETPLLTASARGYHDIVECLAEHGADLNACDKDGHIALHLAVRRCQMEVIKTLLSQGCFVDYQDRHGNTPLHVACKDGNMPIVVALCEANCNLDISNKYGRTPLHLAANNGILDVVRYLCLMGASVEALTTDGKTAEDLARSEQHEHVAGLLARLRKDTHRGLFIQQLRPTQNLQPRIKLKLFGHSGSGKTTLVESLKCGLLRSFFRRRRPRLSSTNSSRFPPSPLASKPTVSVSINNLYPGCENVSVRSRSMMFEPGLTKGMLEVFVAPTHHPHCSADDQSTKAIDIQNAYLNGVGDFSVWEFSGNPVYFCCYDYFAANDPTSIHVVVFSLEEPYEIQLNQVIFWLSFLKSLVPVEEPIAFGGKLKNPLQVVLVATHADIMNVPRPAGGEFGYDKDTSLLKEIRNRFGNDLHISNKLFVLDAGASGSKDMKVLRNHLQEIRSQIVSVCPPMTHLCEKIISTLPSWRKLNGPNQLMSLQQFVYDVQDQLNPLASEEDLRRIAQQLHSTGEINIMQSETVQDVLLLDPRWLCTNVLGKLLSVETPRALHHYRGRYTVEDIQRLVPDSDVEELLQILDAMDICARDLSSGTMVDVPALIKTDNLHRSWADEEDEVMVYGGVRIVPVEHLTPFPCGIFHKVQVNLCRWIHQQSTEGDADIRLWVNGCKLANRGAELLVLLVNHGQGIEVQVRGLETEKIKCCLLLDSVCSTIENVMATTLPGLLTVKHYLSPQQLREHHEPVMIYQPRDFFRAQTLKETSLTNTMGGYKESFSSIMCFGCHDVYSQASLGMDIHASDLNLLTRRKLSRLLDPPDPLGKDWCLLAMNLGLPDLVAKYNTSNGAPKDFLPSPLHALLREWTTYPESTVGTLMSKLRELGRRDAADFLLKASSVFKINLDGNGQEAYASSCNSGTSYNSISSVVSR
Sequence of Vascular endothelial growth factor receptor 3 (Homo sapiens) (P35916 whole entry): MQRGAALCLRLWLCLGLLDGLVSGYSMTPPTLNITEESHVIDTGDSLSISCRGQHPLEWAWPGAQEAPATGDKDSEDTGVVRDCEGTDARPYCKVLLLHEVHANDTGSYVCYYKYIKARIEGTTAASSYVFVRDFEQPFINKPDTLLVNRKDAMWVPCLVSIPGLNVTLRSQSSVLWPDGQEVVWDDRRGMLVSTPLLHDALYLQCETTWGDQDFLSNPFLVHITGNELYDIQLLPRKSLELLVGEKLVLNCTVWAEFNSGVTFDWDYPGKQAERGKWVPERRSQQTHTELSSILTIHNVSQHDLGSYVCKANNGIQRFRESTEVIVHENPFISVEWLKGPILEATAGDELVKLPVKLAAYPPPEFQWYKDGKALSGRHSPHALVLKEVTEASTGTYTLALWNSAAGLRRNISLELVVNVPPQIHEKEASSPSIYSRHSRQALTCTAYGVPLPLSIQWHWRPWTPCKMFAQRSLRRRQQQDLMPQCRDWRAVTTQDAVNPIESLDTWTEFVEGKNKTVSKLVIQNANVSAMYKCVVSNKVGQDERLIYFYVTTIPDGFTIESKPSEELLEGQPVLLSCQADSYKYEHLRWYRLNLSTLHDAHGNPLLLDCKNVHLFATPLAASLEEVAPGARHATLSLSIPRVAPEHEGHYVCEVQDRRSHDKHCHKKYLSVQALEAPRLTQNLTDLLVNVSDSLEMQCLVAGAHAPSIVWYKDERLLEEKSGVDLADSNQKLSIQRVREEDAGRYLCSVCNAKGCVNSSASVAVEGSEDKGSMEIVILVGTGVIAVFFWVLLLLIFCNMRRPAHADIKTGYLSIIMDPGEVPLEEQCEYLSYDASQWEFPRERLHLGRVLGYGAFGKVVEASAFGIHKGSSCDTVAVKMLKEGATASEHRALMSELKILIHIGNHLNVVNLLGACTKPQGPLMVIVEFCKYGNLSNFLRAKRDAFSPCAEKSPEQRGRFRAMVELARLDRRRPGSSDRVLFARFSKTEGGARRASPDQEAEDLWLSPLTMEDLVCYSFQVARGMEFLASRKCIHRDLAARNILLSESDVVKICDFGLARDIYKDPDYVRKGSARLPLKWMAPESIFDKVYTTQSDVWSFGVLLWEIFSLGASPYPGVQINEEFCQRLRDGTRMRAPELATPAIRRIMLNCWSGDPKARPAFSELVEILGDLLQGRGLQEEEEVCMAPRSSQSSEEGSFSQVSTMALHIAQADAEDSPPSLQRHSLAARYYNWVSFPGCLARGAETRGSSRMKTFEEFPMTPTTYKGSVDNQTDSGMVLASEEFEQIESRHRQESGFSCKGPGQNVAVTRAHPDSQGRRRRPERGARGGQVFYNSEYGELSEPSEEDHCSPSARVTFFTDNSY
Sequence of Ephrin type-B receptor 3 (Homo sapiens) (P54753 whole entry): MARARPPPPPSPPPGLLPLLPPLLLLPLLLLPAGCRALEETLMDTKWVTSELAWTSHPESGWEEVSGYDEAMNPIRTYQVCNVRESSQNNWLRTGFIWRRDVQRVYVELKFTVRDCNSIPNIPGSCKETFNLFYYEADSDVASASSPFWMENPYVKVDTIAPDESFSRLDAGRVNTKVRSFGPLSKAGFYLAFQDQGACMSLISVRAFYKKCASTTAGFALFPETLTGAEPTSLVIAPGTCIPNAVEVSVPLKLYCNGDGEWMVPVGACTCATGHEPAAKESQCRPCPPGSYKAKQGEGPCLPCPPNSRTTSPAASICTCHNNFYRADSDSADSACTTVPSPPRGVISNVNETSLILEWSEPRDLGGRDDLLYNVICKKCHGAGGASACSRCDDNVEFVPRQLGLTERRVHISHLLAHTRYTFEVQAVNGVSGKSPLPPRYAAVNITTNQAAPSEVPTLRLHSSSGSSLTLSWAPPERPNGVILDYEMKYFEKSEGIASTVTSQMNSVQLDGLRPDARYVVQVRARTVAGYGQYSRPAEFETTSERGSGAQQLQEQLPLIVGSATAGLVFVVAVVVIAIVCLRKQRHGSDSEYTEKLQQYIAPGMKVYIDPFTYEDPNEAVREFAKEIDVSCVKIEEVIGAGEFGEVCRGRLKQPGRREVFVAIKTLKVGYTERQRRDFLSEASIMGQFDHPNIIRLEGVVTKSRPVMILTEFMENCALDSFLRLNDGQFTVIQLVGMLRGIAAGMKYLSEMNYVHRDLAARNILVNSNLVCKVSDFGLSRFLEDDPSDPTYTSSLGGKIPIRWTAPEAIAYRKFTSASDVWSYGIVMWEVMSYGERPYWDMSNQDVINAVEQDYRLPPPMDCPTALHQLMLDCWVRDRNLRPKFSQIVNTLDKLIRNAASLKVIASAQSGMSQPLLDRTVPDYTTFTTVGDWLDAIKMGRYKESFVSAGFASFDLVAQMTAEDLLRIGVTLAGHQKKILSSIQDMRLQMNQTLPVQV

O=C(O)[C@@H]1[C@@H](Cn2nnc3ccccc3c2=O)CC[C@H]1C(=O)c1ccc(OCCC2CCOCC2)cc1 [BAY-694]
inactive: residual activity [1] 81% | residual activity [2] 96% | residual activity [3] 95% | residual activity [4] 100% | residual activity [5] 100% | residual activity [6] 100% | residual activity [7] 92% | residual activity [8] 100% | residual activity [9] 100% | residual activity [10] 100% | residual activity [11] 68% | inhibition [12] 1.82% | residual activity [13] 100% | residual activity [14] 76% | residual activity [15] 100% | residual activity [16] 84% | residual activity [17] 96% | residual activity [18] 95% | residual activity [19] 99% | residual activity [20] 80% | residual activity [21] 97% | residual activity [22] 100% | residual activity [23] 100% | residual activity [24] 100% | residual activity [25] 100% | residual activity [26] 100% | residual activity [27] 100% | residual activity [28] 89% | residual activity [29] 89% | residual activity [30] 58% | residual activity [31] 100% | residual activity [32] 92% | residual activity [33] 100% | residual activity [34] 100% | residual activity [35] 89% | residual activity [36] 100% | residual activity [37] 100% | residual activity [38] 100% | residual activity [39] 100% | residual activity [40] 91% | residual activity [41] 98% | residual activity [42] 100% | residual activity [43] 100% | residual activity [44] 73% | residual activity [45] 97%

O=C(O)[C@H]1[C@H](Cn2nnc3ccccc3c2=O)CC[C@@H]1C(=O)c1ccc(OCCC2CCOCC2)cc1 [BAY-7598]
inactive: residual activity [1] 100% | residual activity [2] 85% | residual activity [3] 95% | residual activity [4] 72% | residual activity [5] 84% | residual activity [6] 89% | residual activity [7] 81% | residual activity [8] 79% | residual activity [9] 77% | residual activity [10] 100% | residual activity [11] 80% | inhibition [12] 4.3% | residual activity [13] 87% | residual activity [14] 99% | residual activity [15] 95% | residual activity [16] 71% | residual activity [17] 98% | residual activity [18] 83% | residual activity [19] 89% | residual activity [20] 67% | residual activity [21] 100% | residual activity [22] 100% | residual activity [23] 78% | residual activity [24] 86% | residual activity [25] 81% | residual activity [26] 100% | residual activity [27] 100% | residual activity [28] 96% | residual activity [29] 91% | residual activity [30] 65% | residual activity [31] 89% | residual activity [32] 77% | residual activity [33] 100% | residual activity [34] 83% | residual activity [35] 100% | residual activity [36] 88% | residual activity [37] 78% | residual activity [38] 100% | residual activity [39] 100% | residual activity [40] 92% | residual activity [41] 100% | residual activity [42] 100% | residual activity [43] 100% | residual activity [44] 100% | residual activity [45] 100%
